How the values were obtained:
[1] = target: T1, Probable G-protein coupled receptor 139 (Homo sapiens, UniProt Q6DWJ6); assay: Agonist activity at human GPR139 expressed in CHO-K1 cells assessed as increase in calcium flux by calcium 5 dye based FLIPR assay; assay type: functional, cell-based
T1 sequence (Q6DWJ6 whole entry): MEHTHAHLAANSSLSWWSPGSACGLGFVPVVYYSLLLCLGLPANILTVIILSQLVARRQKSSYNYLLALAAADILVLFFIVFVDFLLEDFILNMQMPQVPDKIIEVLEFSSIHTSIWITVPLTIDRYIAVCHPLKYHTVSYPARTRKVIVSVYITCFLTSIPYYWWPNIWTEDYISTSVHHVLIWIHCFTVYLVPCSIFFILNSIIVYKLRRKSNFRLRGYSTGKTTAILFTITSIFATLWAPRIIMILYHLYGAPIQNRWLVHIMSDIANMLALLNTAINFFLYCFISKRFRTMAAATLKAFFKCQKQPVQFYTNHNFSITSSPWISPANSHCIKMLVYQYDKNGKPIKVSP

[2] = target: T2, Probable G-protein coupled receptor 139 (Homo sapiens) (UniProt Q6DWJ6); assay: Agonist activity at human GPR139 expressed in CHO-K1 cells assessed as increase in calcium flux by calcium 5 dye based FLIPR assay relative to JNJ63533054; assay type: functional, cell-based; conditions: filed as agonist
T2 sequence (whole entry): T1 sequence (Q6DWJ6 whole entry)

[3] = target: T3, Probable G-protein coupled receptor 139 (Rattus norvegicus, UniProt P0C0W8); assay: Agonist activity at rat GPR139 expressed in CHO-K1 cells assessed as increase in calcium flux by calcium 5 dye based FLIPR assay; assay type: cell-based
T3 sequence (P0C0W8 whole entry): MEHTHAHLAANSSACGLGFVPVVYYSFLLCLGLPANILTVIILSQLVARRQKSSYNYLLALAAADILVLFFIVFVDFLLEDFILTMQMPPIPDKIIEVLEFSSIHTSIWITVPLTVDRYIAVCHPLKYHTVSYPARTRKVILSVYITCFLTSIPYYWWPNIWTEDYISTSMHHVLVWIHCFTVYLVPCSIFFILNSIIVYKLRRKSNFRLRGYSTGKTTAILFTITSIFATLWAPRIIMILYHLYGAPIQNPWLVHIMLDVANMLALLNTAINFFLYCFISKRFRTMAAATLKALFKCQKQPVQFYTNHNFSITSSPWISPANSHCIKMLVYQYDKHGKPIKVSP

[4] = target: T4, Probable G-protein coupled receptor 139 (Rattus norvegicus) (UniProt P0C0W8); assay: Agonist activity at rat GPR139 expressed in CHO-K1 cells assessed as increase in calcium flux by calcium 5 dye based FLIPR assay relative to JNJ63533054; assay type: cell-based
T4 sequence (whole entry): T3 sequence (P0C0W8 whole entry)

[5] = target: T1, Probable G-protein coupled receptor 139; assay: Agonist activity at human GPR139 expressed in CHO-K1 cells assessed as induction of beta-arrestin 2 recruitment incubated for 90 mins by PathHunter assay; assay type: cell-based
[6] = target: T2, Probable G-protein coupled receptor 139 (Homo sapiens); assay: Agonist activity at human GPR139 expressed in CHO-K1 cells assessed as induction of beta-arrestin 2 recruitment incubated for 90 mins by PathHunter assay relative to JNJ63533054; assay type: cell-based

SMILES	EC50 ([1]; cho-k1)	Emax [2]	EC50 ([3]; cho-k1)	Emax ([4]; filed as agonist)	EC50 [5]	Emax ([6]; filed as agonist)	EC50 [1]	Emax [4]	EC50 ([5]; cho-k1)	EC50 [3]	Emax [6]
Cc1ccc([C@H](C)NC(=O)Cn2nc3cccc(F)n3c2=O)cc1	1 nM	> 80%	1 nM			50%		25%	10 nM		
Cc1cnn2c(=O)n(CC(=O)N[C@@H](C)c3ccc(Cl)c(F)c3)nc2c1	1 nM	> 80%	1 nM	> 80%	≥ 100 nM	50%					
COc1ccc2nn(CC(=O)N[C@@H](C)c3ccc(C)cc3)c(=O)n2c1	1 nM	> 80%			< 1 nM			25%		< 1 nM	25%
Cc1ccc([C@H](C)NC(=O)Cn2nc3c(F)cccn3c2=O)cc1	1 nM	> 80%	1 nM	50%	≥ 100 nM	50%					
C[C@H](NC(=O)Cn1nc2c(N3CCOCC3)cccn2c1=O)c1ccc(Cl)c(F)c1		> 80%		50%		50%	< 1 nM		10 nM	< 1 nM	
COc1ccc2nn(CC(=O)N[C@@H](C)c3ccc(Cl)cc3)c(=O)n2n1		> 80%			< 1 nM		< 1 nM	25%		≥ 100 nM	25%
Cc1ccc([C@H](C)NC(=O)Cn2nc3c(C)ccnn3c2=O)cc1F		> 80%	1 nM	> 80%		> 80%	< 1 nM		10 nM		
C[C@H](NC(=O)Cn1nc2c(NC3COC3)ccnn2c1=O)c1ccc(OC(F)(F)F)cc1	1 nM	> 80%		50%	≥ 100 nM					≥ 100 nM	25%
C[C@H](NC(=O)Cn1nc2c(OC3CN(C)C3)nccn2c1=O)c1ccc(Cl)c(F)c1		50%		> 80%	≥ 100 nM		≥ 100 nM			≥ 100 nM	25%
COc1ccc2nn(CC(=O)N[C@@H](C)c3ccc(Cl)c(F)c3)c(=O)n2n1		> 80%	1 nM	50%	< 1 nM	50%	< 1 nM				
C[C@H](NC(=O)Cn1nc2ccc(C#N)cn2c1=O)c1ccc(Cl)c(F)c1		> 80%	1 nM	50%		> 80%	< 1 nM		1 nM		
C[C@H](NC(=O)Cn1nc2cc(N3CCOCC3)cnn2c1=O)c1ccc(Cl)c(F)c1	1 nM	> 80%	1 nM	> 80%	≥ 100 nM						25%
COc1ccn2c(=O)n(CC(=O)N[C@@H](C)c3ccc(Cl)c(F)c3)nc2n1		> 80%		> 80%		> 80%	< 1 nM		1 nM	< 1 nM	
C[C@H](NC(=O)Cn1nc2ncc(Cl)cn2c1=O)c1ccc(Cl)c(F)c1		> 80%	1 nM	> 80%	≥ 100 nM	50%	< 1 nM				
COc1ccn2c(=O)n(CC(=O)N[C@@H](C)c3ccc(C)cc3)nc2c1		> 80%		50%		50%	< 1 nM		1 nM	< 1 nM	
COc1cccn2c(=O)n(CC(=O)N[C@@H](C)c3ccc(C)cc3)nc12		> 80%	1 nM	50%	< 1 nM	50%	< 1 nM				
C[C@H](NC(=O)Cn1nc2cc(C3CC3)cnn2c1=O)c1ccc(Cl)c(F)c1		> 80%		> 80%		> 80%	< 1 nM		1 nM	< 1 nM	
C[C@H](NC(=O)Cn1nc2cccnn2c1=O)c1ccc(C2CC2)c(F)c1	1 nM	> 80%	1 nM	50%	≥ 100 nM	50%					
C[C@H](NC(=O)Cn1nc2c(N3CCC34CN(C)C4)cccn2c1=O)c1ccc(Cl)c(F)c1	10 nM	50%	10 nM	> 80%					10 nM		25%

Continued, values first:

EC50 ([1]; cho-k1)	Emax [2]	EC50 ([3]; cho-k1)	Emax ([4]; filed as agonist)	EC50 [5]	Emax ([6]; filed as agonist)	EC50 [1]	Emax [4]	EC50 ([5]; cho-k1)	EC50 [3]	Emax [6]	SMILES
1 nM	> 80%	1 nM	50%	< 1 nM	50%						C[C@H](NC(=O)Cn1nc2ccc(F)cn2c1=O)c1ccc(C(F)(F)F)cc1
	50%	1 nM	25%	< 1 nM	50%	< 1 nM					COc1ccc2nn(CC(=O)N[C@@H](C)c3ccc(OC(F)(F)F)cc3)c(=O)n2c1
1 nM	> 80%	1 nM	50%		50%			10 nM			C[C@H](NC(=O)Cn1nc2cccnn2c1=O)c1ccc(OC(F)(F)F)c(F)c1
	> 80%		50%	< 1 nM	50%	< 1 nM			< 1 nM		C[C@H](NC(=O)Cn1nc2cc(Cl)ccn2c1=O)c1ccc(OC(F)(F)F)cc1
1 nM	> 80%	1 nM	50%	≥ 100 nM	> 80%						C[C@H](NC(=O)Cn1nc2cc(OC3COC3)ccn2c1=O)c1ccc(OC(F)(F)F)cc1
	> 80%		> 80%		> 80%	< 1 nM		1 nM	< 1 nM		Cc1ccn2c(=O)n(CC(=O)N[C@@H](C)c3ccc(Cl)c(F)c3)nc2c1
10 nM	> 80%	1 nM	50%	≥ 100 nM						25%	Cc1ccc([C@H](C)NC(=O)Cn2nc3cccnn3c2=O)cc1
	> 80%	1 nM	> 80%		> 80%	< 1 nM		1 nM			Cc1cc([C@H](C)NC(=O)Cn2nc3ccccn3c2=O)ccc1Cl
1 nM	> 80%	1 nM	50%	≥ 100 nM	50%						C[C@H](NC(=O)Cn1nc2ncccn2c1=O)c1ccc(Cl)c(F)c1
	> 80%		50%		> 80%	< 1 nM		1 nM	< 1 nM		Cc1ccc2nn(CC(=O)N[C@@H](C)c3ccc(OC(F)(F)F)cc3)c(=O)n2c1
	50%	1 nM		< 1 nM		< 1 nM	25%			25%	COc1ccn2c(=O)n(CC(=O)N[C@@H](C)c3ccc(OC(F)(F)F)cc3)nc2n1
1 nM	> 80%	1 nM	50%		50%			10 nM			Cc1ccc([C@H](C)NC(=O)Cn2nc3ccccn3c2=O)cc1
1 nM	> 80%		50%	≥ 100 nM	50%				≥ 100 nM		Cc1cnn2c(=O)n(CC(=O)N[C@@H](C)c3ccc(OC(F)(F)F)cc3)nc2c1
1 nM	50%	1 nM					25%	10 nM		25%	C[C@H](NC(=O)Cn1nc2ccc(Cl)nn2c1=O)c1ccc(OC(F)(F)F)cc1
1 nM	> 80%	1 nM	50%		50%			10 nM			Cc1ccc([C@H](C)NC(=O)Cn2nc3ncccn3c2=O)cc1F
1 nM	> 80%			≥ 100 nM			25%		≥ 100 nM	25%	C[C@H](NC(=O)Cn1nc2ncc(F)cn2c1=O)c1ccc(OC(F)(F)F)cc1
1 nM	> 80%	1 nM			50%		25%	10 nM			Cc1ncc([C@H](C)NC(=O)Cn2nc3cc(Cl)ccn3c2=O)cc1F
	50%			≥ 100 nM		≥ 100 nM	< 25%		≥ 100 nM	25%	C[C@H](NC(=O)Cn1nc2ccccn2c1=O)c1cnc(C(F)(F)F)nc1

Reference: ChEMBL document CHEMBL4739716, “Gpr139 receptor modulators” (2020)
